The record followed here is patent US5591752A, “Quinoline derivative” (Ube Industries, Ltd., priority 1993, dated 1997).

For this test, the target named is T1, Leukotriene D4 (LTD4) receptor (Cavia porcellus, UniProt Q2NNR5).
T1 construct: lung cell membrane fractions of guinea pigs were used; from tissue; host or cells: lung membrane fractions of Hartley strain male guinea pigs
T1 sequence (Q2NNR5 1-340): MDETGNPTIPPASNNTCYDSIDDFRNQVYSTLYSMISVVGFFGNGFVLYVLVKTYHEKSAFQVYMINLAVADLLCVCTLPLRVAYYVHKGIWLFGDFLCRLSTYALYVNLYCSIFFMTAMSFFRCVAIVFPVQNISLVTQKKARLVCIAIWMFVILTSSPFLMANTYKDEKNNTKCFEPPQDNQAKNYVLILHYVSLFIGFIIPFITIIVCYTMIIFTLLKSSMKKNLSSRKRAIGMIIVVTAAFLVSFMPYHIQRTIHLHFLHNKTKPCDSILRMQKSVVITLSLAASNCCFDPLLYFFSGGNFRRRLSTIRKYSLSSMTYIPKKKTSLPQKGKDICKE
As to the kind of experiment: Leukotriene D4 receptor binding test ([3H]ICI-198615 displacement, lung cell membrane fractions). Conditions: guinea pig lung membranes, [3H]ICI-198615 about 0.2 nM, pKi=-log Ki. The procedure:
Leukotriene D4 receptor binding test
<Preparation of receptor samples>
As receptor samples, lung cell membrane fractions of guinea pigs were used. The membrane fractions were prepared according to the method of Ahn et al. (Ahn, H. S. & Barnett, A. (1986) Eur. J. Pharmacol., 127, 153.). After Hartley strain male guinea pigs (body weight: 400 to 500 g, supplied by Nihon SLC Co.) were killed by exsanguination, lungs were extracted and perfused with a physiological saline solution (Otsuka Seiyaku) from lung arteries. The extracted lungs were cut into pieces immediately or after the lungs were stored by freezing them at -80 ° C. A 10-fold amount of a buffer solution (pH 7.4) of 10 mM PIPES, 10 mM MgCl2, 10 mM CaCl2 and 50 mM NaCl was added thereto and the mixtures were made suspensions by a homogenizer (manufactured by Yamato Co., LP-41C Model). After the suspensions were filtered with gauze, the filtrates were centrifuged by an ultracentrifuge (manufactured by Hitachi Co., 70P-72 Model) with 50,000 g for 10 minutes, whereby membrane fractions were deposited. The membrane fractions were washed twice and then suspended in the same buffer solution to obtain receptor samples. Measurement of a protein concentration was conducted by the Lowry method (Lowry, O, H. et al. (1951) J. Biol. Chem., 193,265.) by using bovine serum albumin as a standard protein. The samples prepared (protein amount: 10 to 25 mg/ml) were stored by freezing them at -80° C. and used for experiments.
<Leukotriene D4 receptor binding test>
The leukotriene D4 (LTD4) receptor binding test was conducted according to the method of O'Sullivan et al. (O'Sullivan, B. P. & Mong, S. (1989) Mol. Pharmacol., 35, 795.). The receptor samples were diluted with a buffer solution (pH 7.4) of 10 mM PIPES, 10 mM MgCl2, 10 mM CaCl2 and 50 mM NaCl and 0.42 mg/ml in terms of a protein amount was used. As a labeling compound, [^3 H]ICI-198615 (produced by Du Pont Co., 60 Ci/mmol) which specifically binds to the LTD4 receptor was used. [^3 H]ICI-198615 and a compound to be tested were dissolved in dimethylsulfoxide and a 1/50 amount (2% by volume) of the solution was added to the receptor-diluted solutions, respectively. 500 μl of each reaction mixture was incubated at 25° C. for 40 minutes and then filtered with a glass fiber filter (Whatman, GF/B type) by using a cell harvester (manufactured by Brandel Co., M-30R Model). The filters were washed with 10 ml of an ice-cooled 100 mM NaCl-50 mM phosphate buffer solution (pH 7.5) and subjected to ultrasonic treatment in 9 ml of a liquid scintillator (manufactured by Nacalai Tesque, Co., Clear sol I) for 2 minutes. Thereafter, radioactivity was measured by a liquid scintillation counter (manufactured by Packard Co., 2000 CA Model). In a test of determining a dissociation constant of ICI-198615, 0.1 to 2 nM [^3 H]ICI-198615 and 10 μM non-radioactive ICI-198615 were used. In a test of determining inhibition constants of the respective compounds to be tested, [^3 H]ICI-198615 having a concentration of about 0.2 nM and the compounds each having a concentration of 0.1 pM to 0.1 mM were used.
<Data analysis of receptor binding test>
The dissociation constant (Kd) of ICI-198615 and the binding inhibition constants (Ki) of the respective compounds to be tested were determined by the following numerical formulae (A), (B) and (C).
wherein B: a concentration of a label [3H] which is bound to a receptor, Bmax: a maximum receptor-binding concentration of a label [^3 H], F: a concentration of a label [^3 H] which is not bound to a receptor, [L]: a concentration of a label [^3 H], IC50 : a concentration of a compound which inhibits 50% of binding of a label [^3 H] to a receptor and pKi: a logarithm, of a reciprocal of Ki.

Where [1] appears, read: read-out: pKi value (converted).

SMILES strings stand for the structures. Like-named read-outs stand apart in the source and are kept apart here.

On to `O=C(O)CCSC1c2ccccc2COc2ccc(OCc3ccc4ccc(Cl)cc4n3)cc21` (single isomer, unassigned; (+)) [Example 52, (+)-11-(2-Carboxyethylthio)-2-(7-chloroquinolin-2-yl)methoxy-6,11-dihydrodibenz[b,e]oxepine], for which, for the setting “pKi value”, the Ki was 0.316 nM.

Take `O=C(O)CCSC1c2ccccc2COc2ccc(OCc3ccc4cc(F)c(Cl)cc4n3)cc21` (single isomer, unassigned; (-)) [Example 51, (-)-11-(2-Carboxyethylthio)-2-(7-chloro-6-fluoroquinolin-2-yl)methoxy-6,11-dihydrodibenz[b,e]oxepine]: the Ki (pKi value) is 1.26 nM. Still for that read-out and setting: next, `O=C(O)CCSC1c2ccccc2COc2ccc(OCc3ccc4ccc(Cl)cc4n3)cc21` (single isomer, unassigned; (-)) [Example 53, (-)-11-(2-Carboxyethylthio)-2-(7-chloroquinolin-2-yl)-methoxy-6,11-dihydrodibenz[b,e]oxepine]: 3.98 nM; `O=C(O)CCSC1c2ccccc2COc2ccc(OCc3ccc4cc(Cl)ccc4n3)cc21` (stereo not drawn) [Example 5, 11-(2-Carboxyethylthio)-2-(6-chloroquinolin-2-yl)methoxy-6,11-dihydrodibenz[b,e]oxepine]: 3.16 nM. The same measure, in the same setting: the figure for `Cc1cccc2c1C(SCCC(=O)O)c1cc(OCc3ccc4ccc(Cl)cc4n3)ccc1OC2` (stereo not drawn) [Example 12, 11-(2-Carboxyethylthio)-2-(7-chloroquinolin-2-yl)methoxy-10-methyl-6,11-dihydrodibenz[b,e]oxepine] is 5.01 nM; for `O=C(O)CCSC1c2ccc(Br)cc2COc2ccc(OCc3ccc4ccc(Cl)cc4n3)cc21` (stereo not drawn) [Example 14, 8-Bromo-11-(2-carboxyethylthio)-2-(7-chloroquinolin-2-yl)-methoxy-6,11-dihydrodibenz[b,e]oxepine] it is 3.16 nM.

`N#Cc1cccc2c1COc1ccc(OCc3ccc4ccc(Cl)cc4n3)cc1C2SCCC(=O)O` (stereo not drawn) [Example 15, 11-(2-Carboxyethylthio)-2-(7-Chloroquinolin-2-yl)methoxy-7-cyano-6,11-dihydrodibenz[b,e]oxepine] gave a Ki (pKi value) of 0.631 nM.

In turn, `O=C(O)CCSC1c2ccc(SCC(=O)O)cc2COc2ccc(OCc3ccc4ccc(Cl)cc4n3)cc21` (stereo not drawn) [Example 16, 11-(2-Carboxyethylthio)-8-carboxymethylthio-2-(7-chloroquinolin-2-yl)methoxy-6,11-dihydrodibenz[b,e]oxepine] had a Ki (pKi value) of 0.631 nM. Same read-out and setting: next, `O=C(O)CCSC1c2ccc(-c3nn[nH]n3)cc2COc2ccc(OCc3ccc4ccccc4n3)cc21` (stereo not drawn) [Example 17, 11-(2-Carboxyethylthio)-2-(quinolin-2-yl)methoxy-8-(tetrazol-5-yl)-6,11-dihydrodibenz[b,e]oxepine]: 1.58 nM; `O=C(O)CCSC1c2ccc(-c3nn[nH]n3)cc2COc2ccc(OCc3ccc4ccc(Cl)cc4n3)cc21` (stereo not drawn) [Example 18, 11-(2-Carboxyethylthio)-2-(7-chloroquinolin-2-yl)methoxy-8-(tetrazol-5-yl)-6,11-dihydrodibenz[b,e]oxepine]: 0.2 nM.

Consider `O=C(O)CCSC1c2cc(OCc3ccc4ccc(Cl)cc4n3)ccc2OCc2c(-c3nn[nH]n3)cccc21` (stereo not drawn) [Example 19, 11-(2-Carboxyethylthio)-2-(7-chloroquinolin-2-yl)methoxy-7-(tetrazol-5-yl)-6,11-dihydrodibenz[b,e]oxepine], for which, where the note is “pKi value”, the Ki was 0.501 nM. Same read-out and setting: the figure for `NC(=O)c1cccc2c1COc1ccc(OCc3ccc4ccc(Cl)cc4n3)cc1C2SCCC(=O)O` (stereo not drawn) [Example 20, 7-Carbamoyl-11-(2-carboxyethylthio)-2-(7-chloroquinolin-2-yl)methoxy-6,11-dihydrodibenz[b,e]oxepine] is 0.631 nM.

Consider `CC(SC1c2ccccc2COc2ccc(OCc3ccc4ccccc4n3)cc21)C(=O)O` (stereo not drawn) [Example 23, 11-(1-Carboxyethylthio)-2-(quinolin-2-yl)methoxy-6,11-dihydrodibenz[b,e]oxepine], for which the Ki under setting [1] is 5.01 nM. With `O=C(O)CCCSC1c2ccccc2COc2ccc(OCc3ccc4ccc(Cl)cc4n3)cc21` (stereo not drawn) [Example 24, 11-(3-Carboxypropylthio)-2-(7-chloroquinolin-2-yl)methoxy-6,11-dihydrodibenz[b,e]oxepine], the Ki (pKi value) is 2.51 nM. On to `O=C(O)COC1c2ccccc2COc2ccc(OCc3ccc4ccc(Cl)cc4n3)cc21` (stereo not drawn) [Example 27, 11-Carboxymethoxy-2-(7-chloroquinolin-2-yl)methoxy-6,11-dihydrobenz[b,e]oxepine], for which, under setting [1], the Ki is 5.01 nM. Take `Clc1ccc2ccc(COc3ccc4c(c3)C(SCCc3nn[nH]n3)c3ccccc3CO4)nc2c1` (stereo not drawn) [Example 30, 2-(7-Chloroquinolin-2-yl)methoxy-11-[2-(tetrazol-5-yl)ethylthio]-6,11-dihydrodibenz[b,e]oxepine]: the Ki (pKi value) was 2 nM. `Clc1ccc2ccc(COc3ccc4c(c3)C(OCCc3nn[nH]n3)c3ccccc3CO4)nc2c1` (stereo not drawn) [Example 31, 2-(7-Chloroquinolin-2-yl)methoxy-11-[2-(tetrazol-5-yl)ethoxy]-6,11-dihydrodibenz[b,e]oxepine]: the Ki under setting [1] was 2 nM. With `O=C(CSC1c2ccccc2COc2ccc(OCc3ccc4ccc(Cl)cc4n3)cc21)NS(=O)(=O)c1ccccc1` (stereo not drawn) [Example 39, 11-[(Phenylsulfonyl)aminocarbonyl]methylthio-2-(7-chloroquinolin-2-yl)methoxy-6,11-dihydrodibenz[b,e]oxepine], under setting [1], the Ki is 2 nM. Regarding `Cc1ccccc1S(=O)(=O)NC(=O)CCSC1c2ccccc2COc2ccc(OCc3ccc4ccc(Cl)cc4n3)cc21` (stereo not drawn) [Example 40, 2-(7-Chloroquinolin-2-yl)methoxy-11-[2-[(2-methylphenylsulfonyl)aminocarbonyl]ethylthio]-6,11-dihydrodibenz[B,e]oxepine], the Ki under setting [1] is 2.51 nM. The same measure, in the same setting: the figure for `O=C(CSC1c2ccccc2COc2ccc(OCc3ccc4ccccc4n3)cc21)NS(=O)(=O)c1ccccc1` (stereo not drawn) [Example 41, 11-[(Phenylsulfonyl)aminocarbonyl]methylthio-2-(quinolin-2-yl)methoxy-6,11-dihydrodibenz[b,e]oxepine] is 1.26 nM. As to `CC(=O)CCc1ccc2c(c1)COc1ccc(OCc3ccc4cc(F)c(Cl)cc4n3)cc1C2SCCC(=O)O` (stereo not drawn) [Example 48, 11-(2-Carboxyethylthio)-2-(7-chloro-6-fluoroquinolin-2-yl)methoxy-8-(2-acetylethyl)-6,11-dihydrodibenz[b,e]oxepine], the Ki (pKi value) is 0.2 nM.
